The source made the active and inactive calls. The calls are words filed in the database; no cut-off is given here.
How the values were obtained:
Type in all cases: functional, cell-based
NB-4 [1] = test: Antitumor activity against human NB4 cells assessed as reduction in cell viability incubated for 72 hrs; conditions: NB-4, 72 h
HL-60 [2] = test: Antitumor activity against human HL-60 cells assessed as reduction in cell viability incubated for 72 hrs; conditions: HL-60, 72 h
THP-1 [3] = test: Antitumor activity against human THP-1 cells assessed as reduction in cell viability incubated for 72 hrs; conditions: THP-1, 72 h
KG-1 [4] = test: Antitumor activity against human KG-1 cells assessed as reduction in cell viability incubated for 72 hrs; conditions: KG-1, 72 h
U-937 [5] = test: Antitumor activity against human U-937 cells assessed as reduction in cell viability incubated for 72 hrs; conditions: U-937, 72 h
K562 = test: Antitumor activity against human K562 cells assessed as reduction in cell viability incubated for 72 hrs; conditions: K562, 72 h
SU-DHL-2 = test: Antitumor activity against human SUDHL2 cells assessed as reduction in cell viability incubated for 72 hrs; conditions: SU-DHL-2, 72 h
SK-OV-3 [6] = test: Antitumor activity against human SK-OV-3 cells assessed as reduction in cell viability incubated for 72 hrs; conditions: SK-OV-3, 72 h
SK-OV-3 [7] = test: Antitumor activity against taxol-resistant human SK-OV-3 cells assessed as reduction in cell viability incubated for 72 hrs; conditions: SK-OV-3, 72 h
NB-4 [8] = test: Induction of differentiation of human NB4 cells assessed as increase in CD11b expression at 0.5 uM measured after 72 hrs by flow cytometric analysis
HL-60 [9] = test: Induction of differentiation of human HL-60 cells assessed as increase in CD11b expression at 0.5 uM measured after 72 hrs by flow cytometric analysis
THP-1 [10] = test: Induction of differentiation of human THP1 cells assessed as increase in CD11b expression at 0.5 uM measured after 72 hrs by flow cytometric analysis
KG-1 [11] = test: Induction of differentiation of human KG-1 cells assessed as increase in CD11b expression at 0.5 uM measured after 72 hrs by flow cytometric analysis
U-937 [12] = test: Induction of differentiation of human U-937 cells assessed as increase in CD11b expression at 0.5 uM measured after 72 hrs by flow cytometric analysis

Row | IC50 (HL-60 [2]) [µM] | IC50 (THP-1 [3]) [µM] | IC50 (U-937 [5]) [µM] | IC50 (K562) [µM] | IC50 (SU-DHL-2) [µM] | IC50 (SK-OV-3 [6]) [µM] | IC50 (SK-OV-3 [7]) [µM] | Compound | IC50 (NB-4 [1]) [µM] | IC50 (KG-1 [4]) [µM] | Activity (NB-4 [8]) | Activity (HL-60 [9]) | Activity (THP-1 [10]) | Activity (KG-1 [11]) | Activity (U-937 [12])
1 | 7.16 | 15.6 | 2.2 | 3.11 | 19.3 | 4.18 | 4.54 | N#Cc1ccc(C(O)C2=C3C=C[C@@H]4C[C@@]3(OC2=O)[C@@H]2CCCCN42)cc1 (stereo not given in full) | 3.84 | 2.57 | – | – | – | – | –
2 | 10.8 | 18 | 6.36 | 10.8 | 18.3 | 7.86 | 8.89 | O=C1O[C@@]23C[C@@H](C=CC2=C1C(O)c1ccc([N+](=O)[O-])cc1[N+](=O)[O-])N1CCCC[C@H]13 (stereo not given in full) | 12 | 3.08 | – | – | – | – | –
3 | 15.2 | 12.4 | 16.6 | 17.3 | 15.3 | 6.84 | 8.32 | O=C1O[C@@]23C[C@@H](C=CC2=C1C(O)c1ccc(F)cc1)N1CCCC[C@H]13 (stereo not given in full) | 10.3 | 2.12 | – | – | – | – | –
4 | 13.4 | 26.9 | 8.04 | 12.7 | 27.2 | 20.1 | 19.3 | Cc1ccccc1C(O)C1=C2C=C[C@@H]3C[C@@]2(OC1=O)[C@@H]1CCCCN31 (stereo not given in full) | 5.01 | 10 | – | – | – | – | –
5 | 9.92 | 15.5 | 10.8 | 2.58 | 15.2 | 14.2 | 12.5 | O=C1O[C@@]23C[C@@H](C=CC2=C1C(O)c1ccc(Br)cc1)N1CCCC[C@H]13 (stereo not given in full) | 6.18 | 2.27 | – | – | – | – | –
6 | 8.73 | 12 | 8.73 | 4.45 | 16 | 3.42 | 6.52 | O=C1O[C@@]23C[C@@H](C=CC2=C1C(O)c1cccc(F)c1)N1CCCC[C@H]13 (stereo not given in full) | 4.01 | 3.98 | – | – | – | – | –
7 | – | 16.4 | 13.8 | – | 18 | 21 | – | O=C1O[C@@]23C[C@@H](C=CC2=C1C(O)c1nc2ccccc2s1)N1CCCC[C@H]13 (stereo not given in full) | – | – | – | – | – | – | –
8 | 4.17 | 6.16 | 3.68 | 6.06 | 12.1 | 13.5 | 14.8 | O=C1O[C@@]23C[C@@H](C=CC2=C1C(O)c1ccc(C(F)(F)F)cc1)N1CCCC[C@H]13 (stereo not given in full) | 1.99 | 1.83 | – | – | – | – | –
9 | 9.98 | 16.1 | 1.79 | 6.02 | 20.1 | 6.68 | 7.61 | N#Cc1cccc(C(O)C2=C3C=C[C@@H]4C[C@@]3(OC2=O)[C@@H]2CCCCN42)c1 (stereo not given in full) | 7.7 | 1.95 | – | – | – | – | –
10 | 7.66 | 15.8 | 6.99 | 10.3 | 15.3 | 14.7 | 14.9 | O=C1O[C@@]23C[C@@H](C=CC2=C1C(O)c1ccc(F)cc1F)N1CCCC[C@H]13 (stereo not given in full) | 5.8 | 2.21 | – | – | – | – | –
11 | 9.47 | 3.34 | 4.22 | 7.14 | 20.3 | 10.2 | 12.8 | O=C1O[C@@]23C[C@@H](C=CC2=C1C(O)c1ccccc1F)N1CCCC[C@H]13 (stereo not given in full) | 10.9 | 3.54 | – | – | – | – | –
12 | 6.2 | 12 | 4.64 | 2.69 | 9.28 | 3.11 | 3.5 | O=C1O[C@@]23C[C@@H](C=CC2=C1C(O)c1cccc([N+](=O)[O-])c1)N1CCCC[C@H]13 (stereo not given in full) | 3.01 | 1.98 | Active | Active | Active | Active | Active
13 | 17.2 | 25.9 | 27.3 | 17.7 | 20.8 | 11.6 | 12.5 | CS(=O)(=O)c1ccc(C(O)C2=C3C=C[C@@H]4C[C@@]3(OC2=O)[C@@H]2CCCCN42)cc1 (stereo not given in full) | 12.8 | 4.84 | – | – | – | – | –
14 | 6.76 | 9.15 | 3.63 | 3.15 | 9.59 | 14.8 | 13.8 | O=C1O[C@@]23C[C@@H](C=CC2=C1C(O)c1ccc(-c2ccccc2)cc1)N1CCCC[C@H]13 (stereo not given in full) | 3.32 | 4.77 | – | – | – | – | –
15 | 3.52 | 15.5 | 4.38 | 1.68 | 20.7 | 7.76 | 5.59 | O=C1O[C@@]23C[C@@H](C=CC2=C1C(O)c1ccccc1Br)N1CCCC[C@H]13 (stereo not given in full) | 4.67 | 4.11 | – | – | – | – | –
16 | 7.42 | 19.2 | 3.81 | 5.37 | 16.4 | 4.52 | 5.37 | O=C1O[C@@]23C[C@@H](C=CC2=C1C(O)c1ccccc1Cl)N1CCCC[C@H]13 (stereo not given in full) | 3.18 | 3.8 | – | – | – | – | –
17 | 9.2 | 10.7 | 8.05 | 3.7 | 16.1 | 10.2 | 9.91 | O=C1O[C@@]23CC(C=CC2=C1C(O)c1ccccc1[N+](=O)[O-])N1CCCC[C@H]13 (single isomer, unassigned) | 3.3 | 4.18 | – | – | – | – | –
18 | 11.5 | 12.7 | 11.1 | 8.35 | 19.4 | 7.58 | 8.42 | Cc1ccc(C(O)C2=C3C=C[C@@H]4C[C@@]3(OC2=O)[C@@H]2CCCCN42)cc1 (stereo not given in full) | 13.2 | 5.58 | – | – | – | – | –
19 | 11.8 | 14.8 | 7.56 | 4.47 | 18.3 | 9.94 | 11 | O=C1O[C@@]23C[C@@H](C=CC2=C1C(O)c1ccc(Cl)cc1)N1CCCC[C@H]13 (stereo not given in full) | 10.1 | 3.95 | – | – | – | – | –
20 | 20.4 | 15.6 | 29.6 | 2.37 | 27.9 | 22.2 | 20.7 | O=C1O[C@@]23C[C@@H](C=CC2=C1C(O)c1csc2ccccc12)N1CCCC[C@H]13 (stereo not given in full) | 4.45 | 6.14 | – | – | – | – | –
21 | 14.7 | 20.7 | 9.23 | 16.9 | 19 | 14.5 | 15.1 | O=C1O[C@@]23C[C@@H](C=CC2=C1C(O)c1ccccc1)N1CCCC[C@H]13 (stereo not given in full) | 13.3 | 9.12 | – | – | – | – | –
22 | 16 | 16.1 | 16.7 | 20.1 | 20.9 | 14.9 | 17 | CC(C)(C)c1ccc(C(O)C2=C3C=C[C@@H]4C[C@@]3(OC2=O)[C@@H]2CCCCN42)cc1 (stereo not given in full) | 15.9 | 5.77 | – | – | – | – | –

Row | Compound | IC50 (HL-60 [2]) [µM] | IC50 (THP-1 [3]) [µM] | IC50 (U-937 [5]) [µM] | IC50 (K562) [µM] | IC50 (SU-DHL-2) [µM] | IC50 (SK-OV-3 [6]) [µM] | IC50 (SK-OV-3 [7]) [µM] | IC50 (NB-4 [1]) [µM] | IC50 (KG-1 [4]) [µM] | Activity (NB-4 [8]) | Activity (HL-60 [9]) | Activity (THP-1 [10]) | Activity (KG-1 [11]) | Activity (U-937 [12])
23 | O=C1C=C2C=C[C@H]3C[C@@]2(O1)[C@@H]1CCCCN13 | 21.2 | > 50 | 14.9 | 38.1 | > 50 | 35.2 | 36.4 | 20.4 | > 50 | – | – | – | – | –
24 | CC[C@@]1(O)C(=O)OCc2c1cc1n(c2=O)Cc2cc3ccccc3nc2-1 [CAMPTOTHECIN] | 0.91 | 1.89 | 1.81 | 0.58 | 0.94 | – | 4.86 | 2.01 | 2.31 | – | – | – | – | –

From ChEMBL document CHEMBL5252615, “Synthesis, biological activity and mechanism of action of novel allosecurinine derivatives as potential antitumor agents” (Bioorg Med Chem, 2023)
